Source: ChEMBL document CHEMBL5724914, “Linking interpersonal differences in gut microbiota composition and drug biotransformation activity” (2024)

Key:
[1] = (§1) The drug is tested on Z-021 corresponding to metagenome with ENA study accession number: PRJEB37062 and ENA sample accession number: ERS12561820 for biotransformation under anaerobic condition. The drug concentrations were measured over 9 timepoints collected between 0 and 24 hours of incubation by liquid-chromatography-coupled mass spectrometry (LC–MS); conditions: 2 µM
[2] = human gut metagenome, 24 h, 2 µM
[3] = human gut metagenome, 24 h, 2 µM; remark: listed apart in the source
[4] = (§2) The drug is tested on Z-030 corresponding to mouse gut metagenome with ENA study accession number: PRJEB37062 and ENA sample accession number: ERS12561829 for biotransformation under anaerobic condition. The drug concentrations were measured over 9 timepoints collected between 0 and 24 hours of incubation by liquid-chromatography-coupled mass spectrometry (LC–MS); conditions: 2 µM
[5] = human gut metagenome, 24 h, 2 µM; remark: listed apart in the source
[6] = human gut metagenome, 24 h, 2 µM; remark: listed apart in the source
[7] = human gut metagenome, 24 h, 2 µM; remark: listed apart in the source
[8] = human gut metagenome, 24 h, 2 µM; remark: listed apart in the source
[9] = as §2, with “Z-001” for “Z-030”, “ERS12561801” for “ERS12561829”; conditions: 2 µM
[10] = as §2, with “WLS-077” for “Z-030”, “human” for “mouse”, “ERS12561750” for “ERS12561829”; conditions: 2 µM
[11] = as §2, with “WLS-007” for “Z-030”, “human” for “mouse”, “ERS12561742” for “ERS12561829”; conditions: 2 µM
[12] = human gut metagenome, 24 h, 2 µM; remark: listed apart in the source
[13] = as §2, with “Z-016” for “Z-030”, “ERS12561815” for “ERS12561829”; conditions: 2 µM
[14] = as §2, with “Z-007” for “Z-030”, “rat” for “mouse”, “ERS12561807” for “ERS12561829”; conditions: 2 µM
[15] = human gut metagenome, 24 h, 2 µM; remark: listed apart in the source
[16] = as §2, with “WLS-069” for “Z-030”, “human” for “mouse”, “ERS12561748” for “ERS12561829”; conditions: 2 µM
[17] = human gut metagenome, 24 h, 2 µM; remark: listed apart in the source
[18] = as §1, with “Z-023” for “Z-021”, “ERS12561822” for “ERS12561820”; conditions: 2 µM
[19] = human gut metagenome, 24 h, 2 µM; remark: listed apart in the source
[20] = human gut metagenome, 24 h, 2 µM; remark: listed apart in the source
Note: call rule not given here.

CC12CC3CC(C)(C1)CC(N)(C3)C2 [MEMANTINE]
Bacterial Biotransformation [1]: Compound NOT metabolized
Bacterial Biotransformation [2]: Compound NOT metabolized
Bacterial Biotransformation [3]: Compound NOT metabolized
Bacterial Biotransformation [4]: Compound NOT metabolized
Bacterial Biotransformation [5]: Compound NOT metabolized
Bacterial Biotransformation [6]: Compound NOT metabolized
Bacterial Biotransformation [7]: Compound NOT metabolized
Bacterial Biotransformation [8]: Compound NOT metabolized
Bacterial Biotransformation [9]: Compound NOT metabolized
Bacterial Biotransformation [10]: Compound NOT metabolized
Bacterial Biotransformation [11]: Compound NOT metabolized
Bacterial Biotransformation [12]: Compound NOT metabolized
Bacterial Biotransformation [13]: Compound NOT metabolized
Bacterial Biotransformation [14]: Compound NOT metabolized
Bacterial Biotransformation [15]: Compound NOT metabolized
Bacterial Biotransformation [16]: Compound NOT metabolized
Bacterial Biotransformation [17]: Compound NOT metabolized
Bacterial Biotransformation [18]: Compound metabolized
Bacterial Biotransformation [19]: Compound NOT metabolized
Bacterial Biotransformation [20]: Compound NOT metabolized

Cc1cc(C)cc(OCC2CNC(=O)O2)c1 (stereo not given) [METAXALONE]
Bacterial Biotransformation [1]: Compound NOT metabolized
Bacterial Biotransformation [2]: Compound metabolized
Bacterial Biotransformation [3]: Compound metabolized
Bacterial Biotransformation [4]: Compound NOT metabolized
Bacterial Biotransformation [5]: Compound NOT metabolized
Bacterial Biotransformation [6]: Compound NOT metabolized
Bacterial Biotransformation [7]: Compound NOT metabolized
Bacterial Biotransformation [8]: Compound NOT metabolized
Bacterial Biotransformation [9]: Compound NOT metabolized
Bacterial Biotransformation [10]: Compound metabolized
Bacterial Biotransformation [11]: Compound metabolized
Bacterial Biotransformation [12]: Compound metabolized
Bacterial Biotransformation [13]: Compound NOT metabolized
Bacterial Biotransformation [14]: Compound NOT metabolized
Bacterial Biotransformation [15]: Compound metabolized
Bacterial Biotransformation [16]: Compound metabolized
Bacterial Biotransformation [17]: Compound metabolized
Bacterial Biotransformation [18]: Compound NOT metabolized
Bacterial Biotransformation [19]: Compound metabolized
Bacterial Biotransformation [20]: Compound metabolized

COC(=O)C(c1ccccc1)C1CCCCN1 (stereo not given) [METHYLPHENIDATE]
Bacterial Biotransformation [1]: Compound metabolized
Bacterial Biotransformation [2]: Compound metabolized
Bacterial Biotransformation [3]: Compound NOT metabolized
Bacterial Biotransformation [4]: Compound NOT metabolized
Bacterial Biotransformation [5]: Compound NOT metabolized
Bacterial Biotransformation [6]: Compound NOT metabolized
Bacterial Biotransformation [7]: Compound NOT metabolized
Bacterial Biotransformation [8]: Compound NOT metabolized
Bacterial Biotransformation [9]: Compound metabolized
Bacterial Biotransformation [10]: Compound NOT metabolized
Bacterial Biotransformation [11]: Compound NOT metabolized
Bacterial Biotransformation [12]: Compound NOT metabolized
Bacterial Biotransformation [13]: Compound NOT metabolized
Bacterial Biotransformation [14]: Compound NOT metabolized
Bacterial Biotransformation [15]: Compound NOT metabolized
Bacterial Biotransformation [16]: Compound NOT metabolized
Bacterial Biotransformation [17]: Compound metabolized
Bacterial Biotransformation [18]: Compound metabolized
Bacterial Biotransformation [19]: Compound NOT metabolized
Bacterial Biotransformation [20]: Compound metabolized

CN1CCN2c3ccccc3Cc3ccccc3C2C1 (stereo not given) [MIANSERIN]
Bacterial Biotransformation [1]: Compound metabolized
Bacterial Biotransformation [2]: Compound NOT metabolized
Bacterial Biotransformation [3]: Compound NOT metabolized
Bacterial Biotransformation [4]: Compound NOT metabolized
Bacterial Biotransformation [5]: Compound NOT metabolized
Bacterial Biotransformation [6]: Compound NOT metabolized
Bacterial Biotransformation [7]: Compound metabolized
Bacterial Biotransformation [8]: Compound NOT metabolized
Bacterial Biotransformation [9]: Compound NOT metabolized
Bacterial Biotransformation [10]: Compound NOT metabolized
Bacterial Biotransformation [11]: Compound NOT metabolized
Bacterial Biotransformation [12]: Compound NOT metabolized
Bacterial Biotransformation [13]: Compound NOT metabolized
Bacterial Biotransformation [14]: Compound NOT metabolized
Bacterial Biotransformation [15]: Compound metabolized
Bacterial Biotransformation [16]: Compound metabolized
Bacterial Biotransformation [17]: Compound metabolized
Bacterial Biotransformation [18]: Compound NOT metabolized
Bacterial Biotransformation [19]: Compound NOT metabolized
Bacterial Biotransformation [20]: Compound metabolized

CC#C[C@]1(O)CC[C@H]2[C@@H]3CCC4=CC(=O)CCC4=C3[C@@H](c3ccc(N(C)C)cc3)C[C@@]21C [MIFEPRISTONE]
Bacterial Biotransformation [1]: Compound NOT metabolized
Bacterial Biotransformation [2]: Compound NOT metabolized
Bacterial Biotransformation [3]: Compound metabolized
Bacterial Biotransformation [4]: Compound NOT metabolized
Bacterial Biotransformation [5]: Compound metabolized
Bacterial Biotransformation [6]: Compound NOT metabolized
Bacterial Biotransformation [7]: Compound NOT metabolized
Bacterial Biotransformation [8]: Compound NOT metabolized
Bacterial Biotransformation [9]: Compound NOT metabolized
Bacterial Biotransformation [10]: Compound NOT metabolized
Bacterial Biotransformation [11]: Compound metabolized
Bacterial Biotransformation [12]: Compound NOT metabolized
Bacterial Biotransformation [13]: Compound metabolized
Bacterial Biotransformation [14]: Compound NOT metabolized
Bacterial Biotransformation [15]: Compound metabolized
Bacterial Biotransformation [16]: Compound metabolized
Bacterial Biotransformation [17]: Compound metabolized
Bacterial Biotransformation [18]: Compound NOT metabolized
Bacterial Biotransformation [19]: Compound NOT metabolized
Bacterial Biotransformation [20]: Compound metabolized

CC(C)(C)NCC(O)COc1cccc2c1CC(O)C(O)C2 (stereo not given) [NADOLOL]
Bacterial Biotransformation [1]: Compound NOT metabolized
Bacterial Biotransformation [2]: Compound metabolized
Bacterial Biotransformation [3]: Compound NOT metabolized
Bacterial Biotransformation [4]: Compound NOT metabolized
Bacterial Biotransformation [5]: Compound metabolized
Bacterial Biotransformation [6]: Compound NOT metabolized
Bacterial Biotransformation [7]: Compound NOT metabolized
Bacterial Biotransformation [8]: Compound NOT metabolized
Bacterial Biotransformation [9]: Compound metabolized
Bacterial Biotransformation [10]: Compound metabolized
Bacterial Biotransformation [11]: Compound NOT metabolized
Bacterial Biotransformation [12]: Compound NOT metabolized
Bacterial Biotransformation [13]: Compound NOT metabolized
Bacterial Biotransformation [14]: Compound NOT metabolized
Bacterial Biotransformation [15]: Compound metabolized
Bacterial Biotransformation [16]: Compound metabolized
Bacterial Biotransformation [17]: Compound metabolized
Bacterial Biotransformation [18]: Compound NOT metabolized
Bacterial Biotransformation [19]: Compound NOT metabolized
Bacterial Biotransformation [20]: Compound NOT metabolized

CC(C)[C@H]1CC[C@H](C(=O)N[C@H](Cc2ccccc2)C(=O)O)CC1 [NATEGLINIDE]
Bacterial Biotransformation [1]: Compound metabolized
Bacterial Biotransformation [2]: Compound metabolized
Bacterial Biotransformation [3]: Compound metabolized
Bacterial Biotransformation [4]: Compound NOT metabolized
Bacterial Biotransformation [5]: Compound metabolized
Bacterial Biotransformation [6]: Compound NOT metabolized
Bacterial Biotransformation [7]: Compound metabolized
Bacterial Biotransformation [8]: Compound metabolized
Bacterial Biotransformation [9]: Compound NOT metabolized
Bacterial Biotransformation [10]: Compound metabolized
Bacterial Biotransformation [11]: Compound metabolized
Bacterial Biotransformation [12]: Compound metabolized
Bacterial Biotransformation [13]: Compound metabolized
Bacterial Biotransformation [14]: Compound NOT metabolized
Bacterial Biotransformation [15]: Compound metabolized
Bacterial Biotransformation [16]: Compound metabolized
Bacterial Biotransformation [17]: Compound metabolized
Bacterial Biotransformation [18]: Compound metabolized
Bacterial Biotransformation [19]: Compound metabolized
Bacterial Biotransformation [20]: Compound metabolized

CN(C)C(=O)Oc1cccc([N+](C)(C)C)c1.[Br-] [NEOSTIGMINE BROMIDE]
Bacterial Biotransformation [1]: Compound NOT metabolized
Bacterial Biotransformation [2]: Compound NOT metabolized
Bacterial Biotransformation [3]: Compound NOT metabolized
Bacterial Biotransformation [4]: Compound NOT metabolized
Bacterial Biotransformation [5]: Compound NOT metabolized
Bacterial Biotransformation [6]: Compound NOT metabolized
Bacterial Biotransformation [7]: Compound NOT metabolized
Bacterial Biotransformation [8]: Compound NOT metabolized
Bacterial Biotransformation [9]: Compound metabolized
Bacterial Biotransformation [10]: Compound NOT metabolized
Bacterial Biotransformation [11]: Compound NOT metabolized
Bacterial Biotransformation [12]: Compound NOT metabolized
Bacterial Biotransformation [13]: Compound NOT metabolized
Bacterial Biotransformation [14]: Compound NOT metabolized
Bacterial Biotransformation [15]: Compound NOT metabolized
Bacterial Biotransformation [16]: Compound NOT metabolized
Bacterial Biotransformation [17]: Compound NOT metabolized
Bacterial Biotransformation [18]: Compound NOT metabolized
Bacterial Biotransformation [19]: Compound NOT metabolized
Bacterial Biotransformation [20]: Compound NOT metabolized
